Test results published in patent publication US8614230B2, “Derivatives of the aminated hydroxyquinoline class for treating cancers” (Biopharmed, priority 2007, dated 2013).
Where two headings read alike, the source gives them in different places.

Legend:
caspases 8 = assay: Activation of caspases 8 in HL60 cells; assay type: cell-based, human; conditions: 48 hours, 1 μM, 0.1 μM and 0.01 μM
Protocol: (§1) In this example, in order to show the role of compounds I14 and I20 in this effect, specific products were used: DEVD for caspases 3/7, IEDT for caspases 8, and LEHD for caspases 9. Moreover, colchicine was used as reference compound that induces this activity of caspases. I14 and I20 were tested at three concentrations: 1 μM, 0.1 μM and 0.01 μM.
(§2) The experiments were performed by placing I14 and I20 in contact with HL60 cells for 48 hours, according to the standard protocol described by Margolin et al., J. Biol. Chem. (1997), 272, p. 7223, using standard commercially available diagnostic kits (Calbiochem, USA).

HTC116 = assay: Cytotoxicity IC50 on HTC116 cells; assay type: cell-based; conditions: Homo sapiens
Protocol: (§3) The preceding KB cells are then incubated in 6- or 96-well plates in the presence of the test compounds of the invention, dissolved in dimethyl sulfoxide (DMSO). The content of surviving cells is measured by the “colony-forming assay” test, in which the cells are redistributed at a density of 100 to 300 cells per well in 24-well plates, for a period of 8 days, and are then stained with Leishman's reagent (0.2% in methanol). The colonies of more than 50 cells are counted visually under a microscope, the survival rate being expressed on the colonies formed in the presence of the compounds of the invention relative to cell colonies not treated with said compounds. The determination of the IC50 values (concentration of compounds in the reaction medium for which 50% of the tested tumor cells survived the treatment) enables comparison of the efficacy of these compounds.
(§4) Table 4 presents the results of the IC50 (cytotoxicity) on different cell lines, according to the protocol described previously, obtained for compounds I14 and I20.

PC3 = assay: Cytotoxicity IC50 on PC3 cells; assay type: cell-based; conditions: Homo sapiens, PC-3
Protocol: as §3, §4

K562 = assay: Cytotoxicity IC50 on K562 cells; assay type: cell-based; conditions: Homo sapiens
Protocol: as §3, §4

HL60 = assay: Cytotoxicity IC50 on HL60 cells; assay type: cell-based; conditions: Homo sapiens, HL-60
Protocol: as §3, §4

HTC15 = assay: Cytotoxicity IC50 on HTC15 cells; assay type: cell-based; conditions: Homo sapiens
Protocol: as §3, §4

caspases 3/7 = assay: Activation of caspases 3/7 in HL60 cells; assay type: cell-based, human; conditions: 48 hours
Protocol: as §1, §2

A549 = assay: Cytotoxicity IC50 on A549 cells; assay type: cell-based; conditions: Homo sapiens
Protocol: as §3, §4

MCF7 = assay: Cytotoxicity IC50 on MCF7 cells; assay type: cell-based; conditions: Homo sapiens
Protocol: as §3, §4

MCF7R = assay: Cytotoxicity IC50 on MCF7R cells; assay type: cell-based; conditions: Homo sapiens
Protocol: as §3, §4

caspases 9 = assay: Activation of caspases 9 in HL60 cells; assay type: cell-based, human; conditions: 48 hours, 1 μM, 0.1 μM and 0.01 μM
Protocol: as §1, §2

OV3 = assay: Cytotoxicity IC50 on OV3 cells; assay type: cell-based; conditions: Homo sapiens
Protocol: as §3, §4

HepG2 = assay: Cytotoxicity IC50 on HepG2 cells; assay type: cell-based; conditions: Homo sapiens
Protocol: as §3, §4

KB cells = assay: Cytotoxicity / cell viability on KB cells (colony-forming assay); assay type: cell-based, human; conditions: for IC50: Homo sapiens, KB, read-out: Cytotoxicity on KB cells (IC50)
Protocol: Cancerous KB cells are also considered, to determine the cell viability (or survival rate). This cell viability is determined according to the teaching of Nicholson K. M. et al., British Journal of Cancer, 1999, 81, 423-430.
KB cells are human carcinoma cell lines, KB-3-1. These cells are maintained in a culture medium, “Dulbecco's modified Eagle's medium” (DMEM—Sigma), which contains 0.11 g/l of sodium pyruvate and 4.5 g/l of glucose, supplemented with 10% (v/v) fetal calf serum, penicillin (32 μg/ml) and streptomycin (50 μg/ml). The cells are cultured as monolayers and are incubated at 37° C. in a humid atmosphere (95% air/5% CO2).
as §3

U87/GFP cells [1] = assay: Antiproliferative effect on U87/GFP cells (flash cytometry); assay type: cell-based, human
Protocol: For the U-87/GFP cells, the control of cell proliferation and migration in the presence of the compounds (I) of the invention is performed via a colorimetric method (MTS) and is performed according to known standard protocols. The methodologies implemented use flash cytometry (Trophos S.A., Marseilles, France). The flash cytometry technique involves fluorescence, which consists of irradiating a compound at a set wavelength and of recording the fluorescence emitted at another wavelength. This technique is performed with a flash cytometer and adapted for 96-well test plates. The excitation and emission wavelengths in the context of use of this fluorescence are located in the 485-495 nm range. The measured fluorescence expresses the amount of cells surviving after treatment with the compounds of the invention. The publications by Luby-Phelps K. et al., J. Histochemistry and Cytometry, 2003, 51, 271-274 and Modarai B. et al., Circulation, 2005, 111, 2645-2653 may be mentioned by way of reference for the above methods.
The cells of the U87/GFP lines are cultured in 96-well plates according to a standard methodology described by Bajetto et al., Neurochemistry International, 2006, 43, 31-38 in the presence of different concentrations of the compounds of the invention.
The cell proliferation is determined and quantified according to standard methods known to those skilled in the art. A 100% proliferation is attributed to the untreated cells and a percentage less than 100% is obtained when the same cells are treated with the compounds of the invention.
(§5) The cell proliferation and migration are determined by imaging using a flash cytometer (Trophos S.A., Marseilles, France), and the calculations are performed using the “Metamorph 4.6” imaging signal processing software (Molecular Devices, USA), the use of which, which is known in the field, makes it possible to determine the above two effects independently of each other.

U87/GFP cells [2] = assay: Antimigratory effect on U87/GFP cells (scratch technique); assay type: cell-based, human
Protocol: The determination of the antimigratory activity of the compounds (I) of the invention on these same cell lines, cultured in MEM medium (Minimum Essential Medium) is performed via the “scratch” technique that consists in scratching a cell lawn using a micropipette cone. By comparison with these same cells not containing the compounds of the invention, the antimigratory effect is determined. A 100% migration is attributed to the untreated cells, whereas, as a function of the concentration of the compounds (I) of the invention, total stoppage of migration is determined by observation of the “scratch” remaining unfilled by the cell migration, by means of computer software.
as §5

SF268 = assay: Cytotoxicity IC50 on SF268 cells; assay type: cell-based; conditions: Homo sapiens, SF-268
Protocol: as §3, §4

Question: Which “effect on the activation of caspases 8” value (caspases 8) does the source give for Cc1ccc(CN(Cc2ccc(O)c3ncccc23)c2ccc(O)c3ncccc23)cc1 [I14, 5-(((8-hydroxyquinolin-5-yl)(4-methylbenzyl)amino)methyl)quinolin-8-ol] here?
Answer: no effect

Question: And the IC50 (HTC116)?
Answer: 3.2 ± 1.2 nM

Question: And the IC50 (PC3)?
Answer: 343 ± 125 nM

Question: What about the IC50 (K562) of the same compound?
Answer: 40.8 ± 22 nM

Question: And the IC50 (HL60)?
Answer: 32.7 ± 6.6 nM

Question: What about the IC50 (HTC15) of the same compound?
Answer: 6 ± 7.3 nM

Question: What about the “effect on the activation of caspases 3/7” value (caspases 3/7; 0.01 μM) of the same compound?
Answer: neither 114 nor 120 has an effect

Question: What about the “effect on the activation of caspases 3/7” value (caspases 3/7; 1 μM and 0.1 μM) of the same compound?
Answer: strong effect

Question: What about the IC50 (A549) of the same compound?
Answer: 4.3 ± 0.1 nM

Question: What about the IC50 (MCF7) of the same compound?
Answer: 5.4 ± 0.9 nM

Question: What about the IC50 (MCF7R) of the same compound?
Answer: 37.3 ± 28 nM

Question: What about the “effect on the activation of caspases 9” value (caspases 9) of the same compound?
Answer: no effect

Question: What about the IC50 (OV3) of the same compound?
Answer: 8 ± 0.4 nM

Question: What about the IC50 (HepG2) of the same compound?
Answer: 52.1 ± 14.5 nM

Question: And the IC50 (KB cells; first value of two experiments performed in parallel)?
Answer: 2.6 nM

Question: And the IC50 (KB cells; second value of two experiments performed in parallel)?
Answer: 1.4 nM

Question: What about the “Cytotoxicity on KB cells (percentage inhibition of cell viability)” value (KB cells; at 1 μM, relative to reference without compound) of the same compound?
Answer: 90% at 1 μM

Question: What about the inhibition at 0.5 µM (U87/GFP cells [1]; Homo sapiens, at 0.5 μM, read-out: Antiproliferative effect on U87/GFP cells: percentage inhibition) of the same compound?
Answer: 65%

Question: What about the IC50 (U87/GFP cells [1]; concentration giving 65% inhibition of proliferation) of the same compound?
Answer: 500 nM

Question: And the inhibition at 0.5 µM (U87/GFP cells [2]; Homo sapiens, at 0.5 μM, read-out: Antimigratory effect on U87/GFP cells: percentage inhibition)?
Answer: 40%

Question: And the IC50 (U87/GFP cells [2]; concentration giving 40% inhibition of migration)?
Answer: 500 nM

Question: What about the IC50 (SF268) of the same compound?
Answer: 178 ± 83 nM
